Like-named read-outs stand apart in the source and are kept apart here.
Columns and labels:
muscarinic M2 receptor = muscarinic M2 receptor (Homo sapiens, UniProt P08172); assay: G-protein-dependent signal transduction, intracellular Ca2+ mobilization
clinical [1] = conditions: human, in vivo, 2.4 mg
Procedure: Treatment A: A single dose of one TNX-102 2.4 mg SL tablet (with phosphate). Subjects were asked to keep the tablet under the tongue until dissolved and not to crush or chew it. Subjects were asked not to drink any water until at least 1 hour after dosing.
Treatment B: A single dose of one TNX-102-A 2.4 mg SL tablet (without phosphate). Subjects were asked to keep the tablet under the tongue until dissolved and not to crush or chew it. Subjects were asked not to drink any water until at least 1 hour after dosing.
Treatment C: A single dose of two TNX-102 2.4 mg SL tablets (with phosphate). Subjects will be asked to keep the tablets under the tongue until dissolved and not to crush or chew them. Subjects were asked not to drink any water until at least 1 hour after dosing.
Subjects were asked to swallow the administered tablet whole and not to crush or chew it.
Partial AUC at different times were calculated to examine the effect of sublingual administration on absorption.

clinical [2] = conditions: human, in vivo, po, 5 mg
Procedure: The conditions used were as follows:
Quantitation was based on peak area ratio of the analytes versus their stable labeled internal standards. A weighted (1/C2), linear regression was performed to determine the concentration of the analytes. All regressions and figures presented in this validation report were generated by MDS Sciex Analyst version 1.4.2 and Thermo Electron Corporation Watson LIMS software, version 7.0.0.01b. […] Select receptors were analyzed in ligand-induced intracellular calcium mobilization.

[3] = Beagle; for plasma level adjusted to 0.14 mg/kg: Hucker IV
Procedure: Doses were expressed as free base, and so should be adjusted by MW Free Base 275 g/mole/MW HCl salt 312 g/mole. […] In our Beagle studies, the dose was 0.14 mg/kg, which is approximately 1/12.6 the dose of the Hucker studies.

in vivo = conditions: beagle, dog
Procedure: Each dog was sampled at pre-dose before and after Propofol (when possible) and at 5, 10 and 20 minutes post-dose.

[4] = humans, cited from earlier work
[5] = humans, cited from earlier work; remark: listed apart in the source
[6] = Pharmacokinetics of sublingual cyclobenzaprine HCl tablets with and without K2HPO4 (Example 10); type: in vivo, beagle dog; conditions: 2.4 mg sublingual tablet with basifying agent
Procedure: Pharmacokinetic parameters were then calculated and compared.
For sublingual dosing, dogs were given propofol and were put in a lying position (ventral decubitis). The mouth was gently opened and the tablet was placed under the tongue. The tongue was then immediately replaced in its initial position and the mouth was closed. The dog was left in the same position until waking. […] After the washout period of two weeks, dogs were sedated in the same way and given a single sublingual dose of the formulation without basifying agent. Blood samples after both types of treatment were taken pre-dose and at 5, 10, 20, 30, and 45 minutes, and at 1, 2, 3, 4, 6, 8, and 10 hours after dose administration. Blood was taken from the jugular vein.
The method involved liquid-liquid extraction with hexane. The extracts were injected using an HPLC system and an API4000® (Applied Biosystems) for MS/MS detection, with an “Onyx monolithic Phenomenex C18 100×3.0 mm” column.
Sublingual administration was performed by placing the control tablet or tablet with K2HPO4 under the tongue when female beagles were slightly anesthetized with propofol.

[7] = cited from earlier work
[8] = 2.5 mg immediate release tablets (Winchell)
[9] = 5.0 mg immediate release tablets (Winchell)
[10] = 10 mg immediate release tablets (Winchell)

Chain of muscarinic M2 receptor (P08172 whole entry): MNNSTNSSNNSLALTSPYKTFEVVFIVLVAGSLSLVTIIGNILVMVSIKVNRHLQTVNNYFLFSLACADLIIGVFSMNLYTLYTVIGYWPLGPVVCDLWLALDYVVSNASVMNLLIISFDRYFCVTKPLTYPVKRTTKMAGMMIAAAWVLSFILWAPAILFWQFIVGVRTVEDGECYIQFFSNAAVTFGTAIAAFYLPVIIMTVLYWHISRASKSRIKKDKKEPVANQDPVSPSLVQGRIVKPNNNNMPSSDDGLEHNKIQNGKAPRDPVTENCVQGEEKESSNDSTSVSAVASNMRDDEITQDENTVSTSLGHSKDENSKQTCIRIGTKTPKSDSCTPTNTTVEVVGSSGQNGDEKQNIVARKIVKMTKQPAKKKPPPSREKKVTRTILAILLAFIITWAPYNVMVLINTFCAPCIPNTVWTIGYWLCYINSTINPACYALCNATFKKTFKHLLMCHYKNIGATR

CNCCC=C1c2ccccc2C=Cc2ccccc21 [norcyclobenzaprine, 3-(5H-dibenzo[a,d]cyclohepten-5-ylidene)-N-methyl-1-propanamine]
IC50 (muscarinic M2 receptor): 33 nM

CN(C)CCC=C1c2ccccc2C=Cc2ccccc21 [cyclobenzaprine, 3-(5H-dibenzo[a,d]cyclohepten-5-ylidene)-N,N-dimethyl-1-propanamine]
AUC(0-inf) (clinical [1]): ~61 ng·h/mL | Cmax (clinical [1]): ~2.74 ng/mL | AUC(0-t) (clinical [1]; AUC0-20min): ~0.04 ng·h/mL | AUC(0-t) (clinical [1]; AUC0-30min): ~0.13 ng·h/mL | AUC(0-t) (clinical [1]; AUC0-45min): ~0.33 ng·h/mL | AUC(0-t) (clinical [1]; AUC0-1 h): ~0.61 ng·h/mL | AUC(0-t) (clinical [1]; AUC0-2 h): ~2.1 ng·h/mL | AUC(0-t) (clinical [1]; AUC0-3 h): ~3.93 ng·h/mL | AUC(0-t) (clinical [1]; AUC0-4 h): ~6.27 ng·h/mL | AUC(0-t) (clinical [1]; AUC0-5.5 h): ~10.1 ng·h/mL | AUC(0-t) (clinical [1]; AUC0-6 h): ~11.3 ng·h/mL | AUC(0-t) (clinical [1]; AUC0-8 h): ~15.1 ng·h/mL | AUC(0-t) (clinical [1]; AUC0-12 h): ~50.3 ng·h/mL | AUC(0-t) (clinical [1]; AUC0-[…] (second mention, after AUC0-[…])): ~8.81 ng·h/mL | AUC(0-t) (clinical [2]): 92.2 ± 29.9 ng·h/mL | plasma level adjusted to 0.14 mg/kg ([3]; 0.5 h): 34.1 ng/mL | plasma level adjusted to 0.14 mg/kg ([3]; 2 hours): 47.6 ng/mL | plasma level adjusted to 0.14 mg/kg ([3]; 6 h): 35.7 ng/mL | peak plasma level adjusted to 0.14 mg/kg ([3]; Hucker PO gelatin capsule, at 2 hours): 115.9 ng/mL | bioavailability, sublingual vs IV calculated in the same condition (in vivo): about 200% | AUC0-8 h [4, 8]: 11.1 ng·h/mL | AUC0-∞h [4, 8]: 44.2 ng·h/mL | AUC0-8 h [4, 9]: 23.0 ng·h/mL | AUC0-∞h [4, 9]: 89.5 ng·h/mL | AUC0-8 h [4, 10]: 45.9 ng·h/mL | AUC0-∞h [4, 10]: 178.2 ng·h/mL | upper limit for the half-life of the first phase (distribution out of plasma) ([5]; IV bolus): 3 to 5 min | amount in plasma as % of the theoretical initial concentration (Cinit) ([5]; within 3 to 30 minutes after IV bolus): less than 5% | dbmnAUC0-0.75 h ([6]; Beagles 12.5 kg): 0.000708 kg·h/mL | dnAUC0-0.75 h ([6]; Beagles): 5.65e-05 h/mL | plasma level (radioactive equivalents) ([7]; Beagles, 1.76 mg/kg by mouth, 1 hr (Hucker)): 1.14 μg/ml [equivalent] | plasma level (radioactive equivalents) ([7]; Beagles, 1.76 mg/kg by mouth, 2 hr (Hucker)): 1.46 μg/ml [equivalent] | plasma level (radioactive equivalents) ([7]; Beagles, 1.76 mg/kg by mouth, 4 hr (Hucker)): 0.92 μg/ml [equivalent] | plasma level (radioactive equivalents) ([7]; Beagles, 1.76 mg/kg by mouth, 6 hr (Hucker)): 0.58 μg/ml [equivalent] | plasma level (radioactive equivalents) ([7]; Beagles, 1.76 mg/kg by mouth, 24 hr (Hucker)): 0.10 μg/ml [equivalent] | plasma level (radioactive equivalents) ([7]; Beagles, 1.76 mg/kg cyclobenzaprine HCl by mouth, 0.5 h (Hucker)): 0.72 μg/ml [equivalent] | plasma level, Hucker dose adjusted for 0.14 mg/kg ([7]; IV (saline), t 0.5 h): 34.1 ng/mL | plasma level, Hucker dose adjusted for 0.14 mg/kg ([7]; IV (saline), t 1 h): 42.1 ng/mL | plasma level, Hucker dose adjusted for 0.14 mg/kg ([7]; IV (saline), t 2 h): 47.6 ng/mL | plasma level, Hucker dose adjusted for 0.14 mg/kg ([7]; IV (saline), t 4 h): 43.7 ng/mL | plasma level, Hucker dose adjusted for 0.14 mg/kg ([7]; IV (saline), t 6 h): 35.7 ng/mL | plasma level, Hucker dose adjusted for 0.14 mg/kg ([7]; IV (saline), t 24 h): 9.5 ng/mL | plasma level, Hucker dose adjusted for 0.14 mg/kg ([7]; PO (gelatin capsule), t 0.5 h): 57.1 ng/mL | plasma level, Hucker dose adjusted for 0.14 mg/kg ([7]; PO (gelatin capsule), t 1 h): 90.5 ng/mL | plasma level, Hucker dose adjusted for 0.14 mg/kg ([7]; PO (gelatin capsule), t 2 h): 115.9 ng/mL | plasma level, Hucker dose adjusted for 0.14 mg/kg ([7]; PO (gelatin capsule), t 4 h): 73.0 ng/mL | plasma level, Hucker dose adjusted for 0.14 mg/kg ([7]; PO (gelatin capsule), t 6 h): 46.0 ng/mL | plasma level, Hucker dose adjusted for 0.14 mg/kg ([7]; PO (gelatin capsule), t 24 h): 7.9 ng/mL | plasma level (radioactive equivalents) ([7]; dogs, 2 mg/kg intravenous in saline, 0.5 h (Hucker)): 0.43 μg/ml [equivalent] | plasma level (radioactive equivalents) ([7]; dogs, 2 mg/kg intravenous in saline, 1 hr (Hucker)): 0.53 μg/ml [equivalent] | plasma level (radioactive equivalents) ([7]; dogs, 2 mg/kg intravenous in saline, 2 hr (Hucker)): 0.60 μg/ml [equivalent] | plasma level (radioactive equivalents) ([7]; dogs, 2 mg/kg intravenous in saline, 4 hr (Hucker)): 0.55 μg/ml [equivalent] | plasma level (radioactive equivalents) ([7]; dogs, 2 mg/kg intravenous in saline, 6 hr (Hucker)): 0.45 μg/ml [equivalent] | plasma level (radioactive equivalents) ([7]; dogs, 2 mg/kg intravenous in saline, 24 hr (Hucker)): 0.12 μg/ml [equivalent]

Source: patent publication US20260232578A1, “COMPOSITIONS AND METHODS FOR TRANSMUCOSAL ABSORPTION” (Tonix Pharma Limited, priority 2012, published 2026)
